According to patent US8129398B2 (priority 2008, dated 2012):

Molecular target: T1, HIV-integrase (Human immunodeficiency virus type 1 group M subtype B, UniProt P12497)
T1 construct: Recombinant integrase (0.26 ng) was incubated with the beads
Assay: HIV-Integrase Inhibition Activity (SPA bead integration assay with P33 labeled target DNA)
Assay type: biochemical
Conditions: recombinant integrase, class symbols; read-out: in vitro activity
Description: HIV-Integrase Inhibition Activity. To evaluate in-vitro activity against HIV-integrase, 5 pmole of biotin labeled substrate DNA was bound to 100 μg of Streptavidin coated PVT SPA beads (Amersham Pharmacia Biotech). Recombinant integrase (0.26 ng) was incubated with the beads for 90 min at 37° C. Unbound enzyme was removed by washing the complex followed by addition of inhibitors and 0.1 fmol of P33 labeled target DNA. The reaction was stopped by adding EDTA to a final concentration of 10 mM. Samples were counted in TopCountNXT (Packard) and the CPM was used as a measure of integration. The reaction condition was as described in A. Engelman and R. Craigie, J. Virol. 69, 5908-5911 (1995). The sequences of substrate and target DNA were described in Nucleic Acid Research 22, 1121-1122 (1994). Activity equal to A refers to a compound having IC50=<10 nM while B and C denote compounds having […] and IC50>100 nM respectively.

`CN(C)C(=O)C(=O)NC12CCC(CCn3c1nc(C(=O)NCc1ccc(F)cc1)c(O)c3=O)C2` (single isomer, unassigned) [Example 413, Ethanediamide, N′-[2-[[[(4-fluorophenyl)methyl]amino]carbonyl]-7,8,9,10-tetrahydro-3-hydroxy-4-oxo-8,11-methano-4H-pyrimido[1,2-a]azocin-11(6H)-yl]-N,N-dimethyl-] and `Cc1cc(CNC(=O)c2nc3n(c(=O)c2O)CC[C@@H]2CC[C@@]3(NC(=O)C(=O)N(C)C)C2)ccc1F` [Example 415, Ethanediamide, N′-[(8S,11R)-2-[[[(4-fluoro-3-methylphenyl)methyl]amino]carbonyl-7,8,9,10-tetrahydro-3-hydroxy-4-oxo-8,11-methano-4H-pyrimido[1,2-a]azocin-1](6H)-yl]-N,N-dimethyl-] cannot be ordered by IC50: less than 10 nM for the first, less than 10 nM for the second.

`O=C(NCc1ccc(F)cc1)c1nc2n(c(=O)c1O)CC1CCC2(NC(=O)C2CCCN2S(=O)(=O)C2CCCC2)CC1` (stereo not shown) [Example 408] and `O=C(NCc1ccc(F)cc1)c1nc2n(c(=O)c1O)CC1CCC2(NC(=O)C2CCCN2C(=O)C2CCC2)CC1` (stereo not shown) [Example 400] cannot be ordered by IC50: less than 10 nM for the first, less than 10 nM for the second.

`CN(CC1CCCO1)C(=O)C(=O)N(C)C12CCC(CC1)Cn1c2nc(C(=O)NCc2ccc(F)cc2)c(O)c1=O` (stereo not shown) [Example 165, N-(2-((4-Fluorobenzyl)carbamoyl)-3-hydroxy-4-oxo-6,7,8,9-tetrahydro-7,10-ethanopyrimido[1,2-a]azepin-10(4H)-yl)-N,N′-dimethyl-N′-(tetrahydro-2-furanylmethyl)ethanediamide] and `CCN(C(=O)C(=O)N(C)C)C12CCC(CC1)Cn1c2nc(C(=O)NCc2ccc(F)cc2)c(O)c1=O` [Example 173, N-Ethyl-N-(2-((4-fluorobenzyl)carbamoyl)-3-hydroxy-4-oxo-6,7,8,9-tetrahydro-7,11-ethanopyrimido[1,2-a]azepin-10(4H)-yl)-N′,N′-dimethylethanediamide] cannot be ordered by IC50: less than 10 nM for the first, less than 10 nM for the second.

`CC(=O)N1CCC1C(=O)NC12CCC(CC1)Cn1c2nc(C(=O)NCc2ccc(F)c(C)c2)c(O)c1=O` (stereo in doubt) [Example 275, 7,10-Ethanopyrimido[1,2-a]azepine-2-carboxamide, 10-[[[(2S)-1-acetyl-2-azetidinyl]carbonyl]amino]-N-[(4-fluoro-3-methylphenyl)methyl]-4,6,7,8,9,10-hexahydro-3-hydroxy-4-oxo-] and `CC(=O)N1CC(F)(F)C[C@H]1C(=O)NC12CCC(CC1)Cn1c2nc(C(=O)NCc2ccc(F)c(C)c2)c(O)c1=O` [Example 289, 7,10-Ethanopyrimido[1,2-a]azepine-2-carboxamide, 10-[[[(2S)-1-acetyl-4,4-difluoro-2-pyrrolidinyl]carbonyl]amino]-N-[(4-fluoro-3-methylphenyl)methyl]-4,6,7,8,9,10-hexahydro-3-hydroxy-4-oxo-] cannot be ordered by IC50: less than 10 nM for the first, less than 10 nM for the second.

First: CN(C)C(=O)C(=O)NC12CCC(CC1)Cn1c2nc(C(=O)NCc2ccccn2)c(O)c1=O [Example 363]
Second: CN(C)C(=O)C(=O)NC12CCC(CC1)Cn1c2nc(C(=O)NCc2cccc(F)c2)c(O)c1=O [Example 371]
The IC50 of the first is higher: 10 to 100 nM for the first, less than 10 nM for the second. The second is the more potent here.

First: CN(C(=O)c1cccnc1)C12CCC(CC1)Cn1c2nc(C(=O)NCc2ccc(F)cc2)c(O)c1=O [Example 322, 7,10-Ethanopyrimido[1,2-a]azepine-2-carboxamide, N-[(4-fluorophenyl)methyl]-4,6,7,8,9,10-hexahydro-3-hydroxy-10-[methyl(3-pyridinylcarbonyl)amino]-4-oxo]
Second: CN(C)C12CCC(Cn3c1nc(C(=O)NCc1ccc(F)cc1)c(O)c3=O)C2 (stereo not shown) [Example 195, 7,10-Methanopyrimido[1,2-a]azepine-2-carboxamide, 10-(dimethylamino)-N-[(4-fluorophenyl)methyl]-4,6,7,8,9,10-hexahydro-3-hydroxy-4-oxo-]
The IC50 of the first is lower: less than 10 nM for the first, 10 to 100 nM for the second. The first is the more potent here.

`Cc1nnc(C(=O)NC23CCC(CC2)Cn2c3nc(C(=O)NCc3ccc(F)cc3)c(O)c2=O)o1` [Example 53, N-(4-Fluorobenzyl)-3-hydroxy-10-(((5-methyl-1,3,4-oxadiazol-2-yl)carbonyl)amino)-4-oxo-4,6,7,8,9,10-hexahydro-7,11-ethanopyrimido[1,2-a]azepine-2-carboxamide] and `COCCOC(=O)NC12CCC(CC1)Cn1c2nc(C(=O)NCc2ccc(F)cc2)c(O)c1=O` [Example 259, Carbamic acid, [2-[[[(4-fluorophenyl)methyl]amino-0]carbonyl]-6,7,8,9-tetrahydro-3-hydroxy-4-oxo-7,10-ethanopyrimido[1,2-a]azepin-10(4H)-yl]-, 2-methoxyethyl ester] cannot be ordered by IC50: less than 10 nM for the first, less than 10 nM for the second.

`CS(=O)(=O)NC12CCC(Cn3c1nc(C(=O)NCc1ccc(F)cc1)c(O)c3=O)C2` (stereo not shown) [Example 192, 7,10-Methanopyrimido[1,2-a]azepine-2-carboxamide, N-[(4-fluorophenyl)methyl]-4,6,7,8,9,10-hexahydro-3-hydroxy-10-[(methylsulfonyl)amino]-4-oxo-] and `CS(=O)(=O)N1CCN(C(=O)NC23CCC(CC2)Cn2c3nc(C(=O)NCc3ccc(F)cc3)c(O)c2=O)C1=O` [Example 23, N-(4-Fluorobenzyl)-3-hydroxy-10-(((3-(methylsulfonyl)-2-oxo-1-imidazolidinyl)carbonyl)amino)-4-oxo-4,6,7,8,9,10-hexahydro-7,10-ethanopyrimido[1,2-a]azepine-2-carboxamide] cannot be ordered by IC50: less than 10 nM for the first, less than 10 nM for the second.

`CN(C)C(=O)C(=O)NC12CCC(CC1)Cn1c2nc(C(=O)NCCc2ccccc2)c(O)c1=O` [Example 343] and `CN(C)C(=O)C(=O)NC12CCC(CC1)Cn1c2nc(C(=O)NCc2ccc(N)cc2)c(O)c1=O` [Example 385] fall in the same range of IC50: 10 to 100 nM for the first, 10 to 100 nM for the second.

`CCCOC(=O)N1CCCC1C(=O)NC12CCC(CC1)Cn1c2nc(C(=O)NCc2ccc(F)cc2)c(O)c1=O` (stereo not shown) [Example 398] and `CN(C)C(=O)[C@@H]1CCCN1C(=O)C(=O)NC12CCC(CC1)Cn1c2nc(C(=O)NCc2ccc(F)cc2)c(O)c1=O` [Example 91, 10-((((2S)-2-(Dimethylcarbamoyl)-1-pyrrolidinyl) (oxo)acetyl)amino)-N-(4-fluorobenzyl)-3-hydroxy-4-oxo-4,6,7,8,9,10-hexahydro-7,11-ethanopyrimido[1,2-a]azepine-2-carboxamide] cannot be ordered by IC50: less than 10 nM for the first, less than 10 nM for the second.

Compared with `CC1(C)[C@@H]2CC[C@@]1(C)[C@@H](NC(=O)OCc1ccccc1)c1nc(C(=O)NCc3ccc(F)cc3)c(O)c(=O)n1C2` [Example 181, Benzyl((7S,10R,11R)-2-((4-fluorobenzyl)carbamoyl)-3-hydroxy-10,12,12-trimethyl-4-oxo-6,7,8,9,10,11-hexahydro-4H-7,10-methanopyrimido[1,2-a]azocin-11-yl)carbamate], `O=C(NC12COC(CCn3c1nc(C(=O)NCc1ccc(F)cc1)c(O)c3=O)C2)OCc1ccccc1` (stereo not shown) [Example 217, Benzyl (2-((4-fluorobenzyl)carbamoyl)-3-hydroxy-4-oxo-7,8-dihydro-4 H,6H-8,11-methanopyrimido[2,1-d][1,5]oxazocin-11(10H)-yl)carbamate] is lower in IC50: 10 to 100 nM for the first, less than 10 nM for the second.

`Cc1cc(CNC(=O)c2nc3n(c(=O)c2O)CC2CCC3(N(C)C(=O)C(=O)N(C)C)CC2)ccc1F` [Example 156, N-(2-((4-Fluoro-3-methylbenzyl)carbamoyl)-3-hydroxy-4-oxo-6,7,8,9-tetrahydro-7,10-ethanopyrimido[1,2-a]azepin-10(4H)-yl)-N,N′,N′-trimethylethanediamide] and `COc1cc(F)ccc1CNC(=O)c1nc2n(c(=O)c1O)CC1CCC2(NC(=O)C(=O)N(C)C)CC1` [Example 116, N′-(2-((4-Fluoro-2-methoxybenzyl)carbamoyl)-3-hydroxy-4-oxo-6,7,8,9-tetrahydro-7,10-ethanopyrimido[1,2-a]azepin-10(4H)-yl)-N,N-dimethylethanediamide] cannot be ordered by IC50: less than 10 nM for the first, less than 10 nM for the second.

Compared with `NC12CCC(CC1)n1c2nc(C(=O)NCc2ccc(F)cc2)c(O)c1=O` [Example 11, 6,9-Ethano-4H-pyrido[1,2-a]pyrimidine-2-carboxamide, 9-amino-N-[(4-fluorophenyl)methyl]-6,7,8,9-tetrahydro-3-hydroxy-4-oxo-], `O=C(N[C@]12CC[C@H](CCn3c1nc(C(=O)NCc1ccc(F)cc1)c(O)c3=O)C2)C(=O)N1CC[C@@H](F)C1` [Example 417, 8,1,1-Methano-4H-pyrimido[1,2-a]azocine-2-carboxamide, N-[(4-fluorophenyl)methyl]-11-[[2-[(3R)-3-fluoro-1-pyrrolidinyl]-1,2-dioxoethyl]amino]-6,7,8,9,10,11-hexahydro-3-hydroxy-4-oxo-, (8R,11S)—] is lower in IC50: 10 to 100 nM for the first, less than 10 nM for the second. The second is the more potent here.

`Cc1cc(CNC(=O)c2nc3n(c(=O)c2O)CC2CCC3(NC(=O)C3(c4ccccn4)CC3)CC2)ccc1F` [Example 304, 7,10-Ethanopyrimido[1,2-a]azepine-2-carboxamide, N-[(4-fluoro-3-methylphenyl)methyl]-4,6,7,8,9,10-hexahydro-3-hydroxy-4-oxo-10-[[[1-(2-pyridinyl)cyclopropyl]carbonyl]amino]-] and `CO[C@H]1C[C@@H](C(=O)NC23CCC(CC2)Cn2c3nc(C(=O)NCc3ccc(F)c(C)c3)c(O)c2=O)N(C(=O)c2cc(C)n(C)n2)C1` [Example 295, 7,10-Ethanopyrimido[1,2-a]azepine-2-carboxamide, 10-[[[(2S,4S)-1-[(1,5-dimethyl-1H-pyrazol-3-yl)carbonyl]-4-methoxy-2-pyrrolidinyl]carbonyl]amino]-N-[(4-fluoro-3-methylphenyl)methyl]-4,6,7,8,9,10-hexahydro-3-hydroxy-4-oxo-] cannot be ordered by IC50: less than 10 nM for the first, less than 10 nM for the second.
